Assay results as given in paper PMC10683027, “Discovery of tert-Butyl Ester Based 6-Diazo-5-oxo-L-norleucine Prodrugs for Enhanced Metabolic Stability and Tumor Delivery” (Journal of Medicinal Chemistry, 2023).

Legend:
[1] = Metabolic stability in mouse plasma; settings: for Plasma: supplementary CSV, unit not given, matches Table 1 % remaining at 1 h, in %
[2] = Metabolic stability in mouse intestinal homogenate (GIh); settings: for remaining at 1 h, 10 µM / remaining at 1 h, 10 μM: CES1–/–, mouse, intestinal homogenate; for Intestinal homogenate: supplementary CSV, unit not given, matches Table 1 % remaining at 1 h, in %

Row | Compound | remaining at 1 h, 10 µM ([1]; CES1–/–, mouse, plasma) | Plasma [1] | remaining at 1 h, 10 µM [2] | Intestinal homogenate [2] | remaining at 1 h, 10 μM [2] | remaining at 1 h, 10 μM ([1]; CES1–/–, mouse, plasma)
1 | CN(C)CC(=O)N[C@@H](Cc1c[nH]c2ccccc12)C(=O)N[C@@H](CCC(=O)C=[N+]=[N-])C(=O)OC(C)(C)C [Prodrug P9, tert-Butyl (S)-6-Diazo-2-((S)-2-(2-(dimethylamino)acetamido)-3-(1H-indol-3-yl)propanamido)-5-oxohexanoate] | 102 ± 2% | 102 ± 2 | 66 ± 1% | 66 ± 1 | – | –
2 | CN(C)CC(=O)N[C@@H](Cc1cccc(F)c1)C(=O)N[C@@H](CCC(=O)C=[N+]=[N-])C(=O)OC(C)(C)C [Prodrug P16, tert-Butyl (S)-6-Diazo-2-((S)-2-(2-(dimethylamino)acetamido)-3-(3-fluorophenyl)propanamido)-5-oxohexanoate] | 99 ± 3% | 99 ± 3 | 69 ± 7% | 69 ± 7 | – | –
3 | COC(=O)[C@H](CCC(=O)C=[N+]=[N-])NC(=O)[C@H](Cc1c[nH]c2ccccc12)NC(C)=O [Prodrug P1, Methyl (S)-2-((S)-2-Acetamido-3-(1H-indol-3-yl)propanamido)-6-diazo-5-oxohexanoate] | – | – | 4% | 4 ± 0 | < 10% | –
4 | CC(=O)N[C@@H](Cc1c[nH]c2ccccc12)C(=O)N[C@@H](CCC(=O)C=[N+]=[N-])C(=O)OCC1CC1 [Prodrug P4, Cyclopropylmethyl (S)-2-((S)-2-Acetamido-3-(1H-indol-3-yl)propanamido)-6-diazo-5-oxohexanoate] | – | – | 1% | 1 ± 0 | < 10% | –
5 | CN(C)CC(=O)NCC(=O)N[C@@H](CCC(=O)C=[N+]=[N-])C(=O)OC(C)(C)C [Prodrug P18, tert-Butyl (S)-6-Diazo-2-(2-(2-(dimethylamino)acetamido)acetamido)-5-oxohexanoate] | 108 ± 1% | 108 ± 1 | 97 ± 1% | 97 ± 1 | – | –
6 | CN(C)CC(=O)N[C@@H](Cc1ccc(C(F)(F)F)cc1)C(=O)N[C@@H](CCC(=O)C=[N+]=[N-])C(=O)OC(C)(C)C [Prodrug P17, tert-Butyl (S)-6-Diazo-2-((S)-2-(2-(dimethylamino)acetamido)-3-(4-(trifluoromethyl)phenyl)propanamido)-5-oxohexanoate] | 70 ± 14% | 70 ± 14 | 76 ± 1% | 76 ± 1 | – | –
7 | CC(=O)N[C@@H](Cc1c[nH]c2ccccc12)C(=O)N[C@@H](CCC(=O)C=[N+]=[N-])C(=O)OC1CC1 [Prodrug P3, Cyclopropyl (S)-2-((S)-2-Acetamido-3-(1H-indol-3-yl)propanamido)-6-diazo-5-oxohexanoate] | – | – | 6% | 6 ± 0 | < 10% | –
8 | CN(C)CC(=O)N[C@@H](Cc1cn(C)c2ccccc12)C(=O)N[C@@H](CCC(=O)C=[N+]=[N-])C(=O)OC(C)(C)C [Prodrug P10, tert-Butyl (S)-6-Diazo-2-((S)-2-(2-(dimethylamino)acetamido)-3-(1-methyl-1H-indol-3-yl)propanamido)-5-oxohexanoate] | 97 ± 2% | 97 ± 2 | 87 ± 2% | 87 ± 2 | – | –
9 | CC(C)(C)OC(=O)[C@H](CCC(=O)C=[N+]=[N-])NC(=O)[C@H](Cc1c[nH]c2ccccc12)NC(=O)CN1CCOCC1 [Prodrug P7, tert-Butyl (S)-2-((S)-3-(1H-Indol-3-yl)-2-(2-morpholinoacetamido)propanamido)-6-diazo-5-oxohexanoate] | 95 ± 3% | – | 83 ± 1% | 83 ± 1 | – | –
10 | CC(C)C[C@H](NC(=O)CN(C)C)C(=O)N[C@@H](CCC(=O)C=[N+]=[N-])C(=O)OC(C)(C)C [Prodrug P20, tert-Butyl (S)-6-Diazo-2-((S)-2-(2-(dimethylamino)acetamido)-4-methylpentanamido)-5-oxohexanoate] | 98 ± 2% | 98 ± 2 | 79% | 79 ± 0 | – | –
11 | CNC(=O)[C@H](CCC(=O)C=[N+]=[N-])NC(=O)[C@H](Cc1c[nH]c2ccccc12)NC(C)=O [Prodrug P6, (S)-2-((S)-2-Acetamido-3-(1H-indol-3-yl)propanamido)-6-diazo-N-methyl-5-oxohexanamide] | 102 ± 1% | 102 ± 1 | 77 ± 1% | 77 ± 1 | > 50% | –
12 | CN(C)CC(=O)N[C@@H](CC(C)(C)C)C(=O)N[C@@H](CCC(=O)C=[N+]=[N-])C(=O)OC(C)(C)C [Prodrug P21, tert-Butyl (S)-6-Diazo-2-((S)-2-(2-(dimethylamino)acetamido)-4,4-dimethylpentanamido)-5-oxohexanoate] | 98 ± 3% | 98 ± 3 | 68 ± 1% | 68 ± 1 | – | –
13 | CN(C)CC(=O)N[C@@H](Cc1ccc(F)cc1)C(=O)N[C@@H](CCC(=O)C=[N+]=[N-])C(=O)OC(C)(C)C [Prodrug P15, tert-Butyl (S)-6-Diazo-2-((S)-2-(2-(dimethylamino)acetamido)-3-(4-fluorophenyl)propanamido)-5-oxohexanoate] | 108 ± 1% | 108 ± 1 | 67 ± 1% | 67 ± 1 | – | –
14 | CC(=O)N[C@@H](Cc1c[nH]c2ccccc12)C(=O)N[C@@H](CCC(=O)C=[N+]=[N-])C(=O)OC(C)(C)C [Prodrug P5, tert-Butyl (S)-2-((S)-2-Acetamido-3-(1H-indol-3-yl)propanamido)-6-diazo-5-oxohexanoate] | 92 ± 1% | 92 ± 1 | 99 ± 1% | 99 ± 1 | > 50% | –
15 | C[C@H](NC(=O)CN(C)C)C(=O)N[C@@H](CCC(=O)C=[N+]=[N-])C(=O)OC(C)(C)C [Prodrug P19, tert-Butyl (S)-6-Diazo-2-((S)-2-(2-(dimethylamino)acetamido)propanamido)-5-oxohexanoate] | 99 ± 2% | 99 ± 2 | 86 ± 4% | 86 ± 4 | – | –
16 | CN(C)CC(=O)N[C@H](C(=O)N[C@@H](CCC(=O)C=[N+]=[N-])C(=O)OC(C)(C)C)c1ccccc1 [Prodrug P13, tert-Butyl (S)-6-Diazo-2-((S)-2-(2-(dimethylamino)acetamido)-2-phenylacetamido)-5-oxohexanoate] | – | 92 ± 1 | – | 92 ± 1 | 92 ± 1% | 92 ± 1%
17 | CCOC(=O)[C@H](CCC(=O)C=[N+]=[N-])NC(=O)[C@H](Cc1c[nH]c2ccccc12)NC(C)=O [Prodrug P2, Ethyl (S)-2-((S)-2-Acetamido-3-(1H-indol-3-yl)propanamido)-6-diazo-5-oxohexanoate] | – | – | 2% | 2 ± 0 | < 10% | –
18 | CN(C)CC(=O)N[C@H](Cc1ccccc1)C(=O)N[C@@H](CCC(=O)C=[N+]=[N-])C(=O)OC(C)(C)C [Prodrug P12, tert-Butyl (S)-6-Diazo-2-((R)-2-(2-(dimethylamino)acetamido)-3-phenylpropanamido)-5-oxohexanoate] | 92% | 92 ± 0 | 90 ± 3% | 90 ± 3 | – | –
